Laboratory results reported in patent US11000560B2, “Oncolytic adenoviruses with mutations in immunodominant adenovirus epitopes and their use in cancer treatment” (VCN B[…], priority 2015, dated 2021).

Test system: human HLA-A2.1
Assay: HLA-A2.1 stabilization assay (RMA-S A2 cells)
Assay type: binding
Conditions: for HLA-A2 binding compared to unmodified counterpart: peptide 300 to 0.1 μM; for reduction of HLA-A2 binding compared to unmodified counterpart: from Kd values
Experimental: An HLA-A2.1 stabilization assay was used, with minor modifications from Takiguchi et al. (Takiguchi, M., Tissue Antigens. 2000 April; 55(4):296-302) (incorporated by reference herein in its entirety), to evaluate the binding affinity of mutated peptides. Murine cells expressing HLA-A2.1 (RMA-S A2 cells) were incubated for 18 h at 26° C. in order to allow for HLA-A2 surface expression in the absence of any peptide. Peptides were serially diluted 1:3 in a 96-well plate with a U shape bottom, starting with 300 μM up to 0.1 μM in 100 μl volume. 2.5e5 RMA-S A2 cells were added to each well in 100 μl volume. The mixture was incubated for 2 hours at 26° C. and then at 37° C. for 2 hours to allow unbound HLA-A2.1 to be internalized. Cells were spun for 3 minutes at 500 g and washed three times with PBS, FBS 5%, BSA 0.5%. Cells were incubated with 100 μl of the supernatant of hybridoma anti-HLA-A2.1 (PA2.1) and incubated for 30 minutes at 4° C. Cells were washed three times and then incubated with Alexa Fluor® 488 goat anti-mouse IgG (Molecular Probes®) at 1:500 dilution for 30 minutes at 4° C. Cells were washed three times and then analyzed with Gallios flow cytometer (Beckman Coulter). As a negative control, RMA-S A2 cells were incubated with a peptide having no affinity to HLA-A2.1 under the same experimental conditions. The fluorescence index was calculated using the formula: Fluorescein Index=(sample fluorescence−negative control fluorescence)/negative control fluorescence.
Using GraphPad Prism v5, Kd values were analyzed using a non-linear regression. A Kd value was obtained for each peptide that represents the binding constant in equilibrium with half of the maximum possible binding.

Sequence | HLA-A2 binding compared to unmodified counterpart | reduction of HLA-A2 binding compared to unmodified counterpart
LLYANSAHS [A900S] | maintained the same level of binding | 
YLNHTFKKA [V721A] | maintained the same level of binding | 
GLVDCYINP [L520P] |  | more than 10 times
YVLFEVFDK [V925K] |  | ~600 times
